The test deals with CEM cells HIV-1 protection, formazan growth assay. Put plainly: NCI AIDS Antiviral Assay. The note with it: for IC50: measured here: growth of uninfected CEM cells. In a few lines: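 CEM (human) cells, HIV-1 infected vs uninfected, 5-point dosing, formazan growth read-out. Retest threshold 50% protection.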

Activity calls are given as the source filed them.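 How the source made its calls: active means compounds giving half or more protection of infected cells from virus-caused growth loss, again on retest; inactive means the rest.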 Where a SMILES comes first, the peptide text is derived from it. [ ]: non-standard residue; d: D form. The star is where a group is joined. Nle = CCCC[CH](N)C(=O)O; Cbz = O=C(OCc1ccccc1)*; OBn = c1ccc(CO*)cc1

For the molecule `c1ccc(CN[C@]23C4C5CC6C7C5C2C7[C@@](NCc2ccccc2)(C64)N3Cc2ccccc2)cc1` (some centres undefined), the EC50 is greater than 200 µM and the half-inhibitory concentration (IC50) turned out to be 105 µM.

For the molecule `Cn1c(=S)sc2nc3ccccc3n2c1=S`, the EC50 was greater than 200 µM and the IC50 was found to be 10.7 µM.

On to `CC(=O)Nc1ccc(S(=O)(=O)N/N=C(/C)C2CCOC2=O)cc1` (centres undefined), for which the EC50 is greater than 741 µM and the IC50 is greater than 741 µM.

Take `Clc1c2ccccc2nc2c1[nH]c1ccccc12`: the EC50 was greater than 200 µM and the half-maximal inhibitory concentration (IC50) was found to be 11.2 µM.

With `COC(=O)C1=C(C)N2[C@H](C(=O)O)CO[C@@]2(C)[C@H](C(=O)OC)[C@H]1c1cccc([N+](=O)[O-])c1`, the EC50 is greater than 200 µM and the half-inhibitory concentration (IC50) was greater than 200 µM.

`N#CCCN(c1ccc(/C=C2\N=C(Cc3ccccc3)OC2=O)cc1)S(=O)(=O)c1ccccc1`: the EC50 was 240 µM and the IC50 came out at 275 µM.

Take `COC(=O)CCc1ccc2c(c1)C(=O)CC2`: the EC50 was greater than 200 µM and the IC50 was greater than 200 µM.

In the case of `O=C1c2ccncc2C(=O)c2c1[nH]c1ccccc21`, the EC50 was greater than 200 µM and the IC50 is 3.16 µM.

As for `CC1(N2CCOCC2)CC2C(=[N+]1[O-])CCC/C2=N/O` (centres undefined), the EC50 is greater than 200 µM and the half-inhibitory concentration (IC50) is greater than 200 µM.

Regarding `CCOC(=O)c1nc2ccc(C(F)(F)F)cc2nc1Oc1ccc(C#N)cc1`, the EC50 is greater than 200 µM and the half-maximal inhibitory concentration (IC50) is greater than 200 µM.

Turning to `O=C(O)c1cc(O)cc(O)c1CNc1ccc(/C=C\c2ccc(NCc3c(O)cc(O)cc3C(=O)O)cc2S(=O)(=O)O)c(S(=O)(=O)O)c1`, the EC50 is greater than 87.1 µM and the concentration for half-maximal inhibition (IC50) was greater than 87.1 µM.

`Cc1nnc2nc(N)[nH]n2c1=O`: the EC50 is greater than 200 µM and the half-maximal inhibitory concentration (IC50) is greater than 200 µM.

`CN1CCN(C2=Nc3ccccc3Cc3ccccc32)CC1`: the EC50 is greater than 170 µM and the IC50 was 64.6 µM.

On to `CCOC(=O)/C(=C/c1ccc(Br)cc1)C(=O)c1ccccc1`, for which the EC50 was greater than 10.5 µM and the IC50 is greater than 10.5 µM.

As to `COc1ccc2nc3c([N+](=O)[O-])ccc(NCCCN(C)C)c3c(N)c2c1`, the EC50 was greater than 200 µM and the IC50 was 0.195 µM.

As for `CC(=O)OCC1OC(n2c(C)c(N=Nc3ccc(C)cc3)c(C)c(C#N)c2=S)C(OC(C)=O)C(OC(C)=O)C1OC(C)=O` (centres undefined), the EC50 was greater than 200 µM and the IC50 is greater than 200 µM.

In the case of `CCNC(=O)NNc1ncnc2c1c(-c1ccc(Cl)cc1)cn2-c1ccc(C)cc1`, the EC50 was greater than 200 µM and the half-maximal inhibitory concentration (IC50) was 35.5 µM.

As to `O=C(NCCc1ccccc1)/C(=C\c1ccc(Cl)cc1Cl)NC(=O)c1ccccc1`, the EC50 is greater than 200 µM and the 50% inhibitory concentration (IC50) was greater than 200 µM.

As for `Cc1c(C(=O)CC(=O)C(=O)Nc2ccc(Cl)cc2)[n+](=O)c2ccccc2n1[O-]`, the EC50 is greater than 12.6 µM and the concentration for half-maximal inhibition (IC50) was greater than 12.6 µM.

In the case of `CCc1cc(Cc2cc(CC)c(NC(=O)C(=O)Cc3ccccn3)c(CC)c2Cl)c(Cl)c(CC)c1NC(=O)C(=O)Cc1ccccn1`, the EC50 is greater than 72.4 µM and the concentration for half-maximal inhibition (IC50) is greater than 72.4 µM.

As to `O=S(=O)(O)CCCCO`, the EC50 was greater than 200 µM and the concentration for half-maximal inhibition (IC50) was greater than 200 µM.

As to `CCCCC(NC(=O)C1CCCN1C(=O)OCc1ccccc1)C(=O)OCc1ccccc1` (stereo not drawn) (Cbz-Pro-[Nle]-OBn; configuration not given here), the EC50 was greater than 41.7 µM and the IC50 was greater than 41.7 µM.

Consider `COc1ccc2c3c1O[C@]1(C)C34CCN(C)C(C2)C42C=C[C@@]1(OC)c1c(O)ccc(O)c12`, for which the EC50 is greater than 60.3 µM and the IC50 is greater than 60.3 µM.

For `OC(c1ccc(-c2ccccc2)cc1)C(F)(F)c1nc2ccccc2o1` (centres undefined), the EC50 was greater than 200 µM and the 50% inhibitory concentration (IC50) was determined as 34.7 µM.

Take `O=Nc1ccc(N=O)cc1`: the EC50 is greater than 200 µM and the IC50 was greater than 200 µM.

Regarding `O=C1CCC2(CC1CCS(=O)c1ccccc1)OCCO2` (centres undefined), the EC50 is greater than 200 µM and the IC50 is greater than 200 µM.

On to `O=C(Cc1ccccc1)NN1C(=O)C(Cl)C1c1ccc(Cl)cc1` (centres undefined), for which the EC50 was greater than 102 µM and the IC50 is greater than 102 µM.

On to `FC(F)(F)C1(C(F)(F)F)OC(Cl)(Cl)C(Cl)(Cl)O1`, for which the EC50 was greater than 200 µM and the IC50 is greater than 200 µM.

For `O=C(Nc1ccc2oc(=O)c(C(=O)O)cc2c1)Oc1ccccc1`, the EC50 was greater than 282 µM and the 50% inhibitory concentration (IC50) was greater than 282 µM.

In the case of `CC1=CC(O)C(Br)C(C)(C)C12CCC(C)(Cl)C(Br)C2` (centres undefined), the EC50 is greater than 200 µM and the IC50 was determined as 25.1 µM.

For the molecule `CSC1N=CNc2c1sc(=S)n2-c1ccccc1` (centres undefined), the EC50 was greater than 33.9 µM and the IC50 was greater than 33.9 µM.

As to `Fc1ccc2nncc(SCc3ccc(Cl)c(Cl)c3)c2c1`, the EC50 was greater than 79.4 µM and the 50% inhibitory concentration (IC50) is greater than 79.4 µM.

As for `[N-]=[N+]=NC12CC3CC4C5CC(CC41)CC2[C@H]5C3`, the EC50 was greater than 81.3 µM and the concentration for half-maximal inhibition (IC50) was greater than 81.3 µM.

As to `CCOC(=O)CN1C(=O)c2c(NC(=O)C(=O)O)cccc2S1(=O)=O`, the EC50 is greater than 200 µM and the IC50 was greater than 200 µM.

Consider `COc1cc(C=C2C(=O)OC(C)(C)OC2=O)cc(OC)c1OC`, for which the EC50 was greater than 776 µM and the IC50 was 83.2 µM.

For `CC1C(=O)CC(c2cccs2)N(N=O)C1c1cccs1` (centres undefined), the EC50 is greater than 117 µM and the concentration for half-maximal inhibition (IC50) amounted to 77.6 µM.

As for `Cc1cc(S(N)(=O)=O)c(SCc2nc(N)nc(N(C)C)n2)cc1Cl`, the EC50 is greater than 200 µM and the 50% inhibitory concentration (IC50) is greater than 200 µM.

With `Cn1cc(NC(=O)c2cc(NC(=O)[C@@H]3CCC(N)=N3)c[nH]2)cc1C(=O)NCCC(=N)N`, the outcome was inactive.

For the molecule `O=c1[nH]cnc2c1ncn2[C@H]1CO[C@@H](CO)[C@@H]1O`, the EC50 was greater than 100 µM and the concentration for half-maximal inhibition (IC50) is greater than 100 µM.

With `CC1(C)CCCC2(C)[C@@H]1CC[C@@]13CC(=O)[C@@](C)(CC[C@@H]21)C3` (some centres undefined), the EC50 was greater than 91.2 µM and the IC50 was greater than 91.2 µM.

On to `CN(C)c1nc2ccccc2[nH]1`, for which the result was inactive.

On to `COC12OCC(OC1OCc1ccccc1)C1OC(C)(C)OC12` (centres undefined), for which the EC50 was greater than 200 µM and the half-inhibitory concentration (IC50) turned out to be 105 µM.

`CSCC(COC(C)=O)(CSC)c1ccncc1`: the EC50 is greater than 871 µM and the half-maximal inhibitory concentration (IC50) is 501 µM.

In the case of `Cc1ccc(S(=O)(=O)NC(=O)n2ccnc2C)cc1`, the EC50 was greater than 891 µM.

As for `N[C@H](CCC(=O)NCP(=O)(O)O)C(=O)O`, the EC50 was greater than 200 µM and the half-inhibitory concentration (IC50) was greater than 200 µM.

Consider `O=C(/C=C/c1ccccc1[N+](=O)[O-])c1ccccc1`, for which the EC50 was greater than 39.8 µM and the IC50 was 6.92 µM.

As for `Cc1ccccc1Nc1nc(-c2ccccc2)nc(N)c1N=O`, the EC50 was greater than 200 µM and the IC50 was determined as 21.9 µM.

Regarding `CC(=O)c1ccc2c(c1)CC1(C2)Cc2ccc3c(c2C1=O)CCC3` (centres undefined), the EC50 was greater than 200 µM and the IC50 stood at 33.1 µM.

In the case of `CC(=O)N1c2ccccc2N(C(C)=O)C1c1ccc(C2N(C(C)=O)c3ccccc3N2C(C)=O)[nH]1`, the outcome was inactive.

Turning to `CNC(=O)OCc1cc(C(=O)NCCCNCCCNC(=O)c2ccc([N+](=O)[O-])c(COC(=O)NC)c2)ccc1[N+](=O)[O-]`, the outcome was inactive.

Turning to `COc1ccc(N=Nc2c(N)nn3cc4c(nc23)-c2ccccc2CC4)cc1`, the EC50 was greater than 200 µM and the concentration for half-maximal inhibition (IC50) was determined as 2.57 µM.

With `CCN(CC)C(=S)SCCCS(=O)(=O)O`, the outcome was inactive.

As for `CCOC(=O)/C(C1=N[C@H](C(=O)OCC)CS1)=C(\O)c1ccccc1`, the EC50 is greater than 145 µM and the half-maximal inhibitory concentration (IC50) was greater than 145 µM.

Take `O=c1[nH]c(=O)n(Cc2ccccc2)cc1B(O)O`: the EC50 was greater than 200 µM and the half-maximal inhibitory concentration (IC50) is greater than 200 µM.

Regarding `O=c1cc[nH]c2c1ccc1[nH]ccc(=O)c12`, the EC50 is greater than 200 µM and the IC50 is greater than 200 µM.

Turning to `O=C1OC(Sc2ccccc2)(Sc2ccccc2)c2cccc3cccc1c23`, the outcome was inactive.

For `Nc1ccc2c(c1)C1(NC(=O)NC1=O)c1cc(N)ccc1-2`, the EC50 was greater than 200 µM and the half-maximal inhibitory concentration (IC50) is greater than 200 µM.

With `COc1ccc2nc3cccc([N+](=O)[O-])c3c(NC(C)CN(C)C)c2c1` (centres undefined), the EC50 is greater than 20 µM and the IC50 is 2.29 µM.

In the case of `O=C(O)CCSSc1ccc([N+](=O)[O-])cc1[N+](=O)[O-]`, the EC50 is greater than 200 µM and the concentration for half-maximal inhibition (IC50) is 15.8 µM.

For the molecule `O=[N+]([O-])c1cc(-c2nc(=S)[nH][nH]2)ccc1O`, the EC50 was greater than 1050 µM and the half-maximal inhibitory concentration (IC50) was 257 µM.

As to `COc1ccc(C(=O)/C(Br)=C/C(=O)O)cc1`, the EC50 was greater than 427 µM and the half-maximal inhibitory concentration (IC50) was found to be 22.9 µM.

Turning to `O=C(Nc1c(Cl)cc([N+](=O)[O-])cc1Cl)C(=O)C1C(=O)NC(=S)NC1=O`, the EC50 is greater than 89.1 µM and the IC50 was greater than 89.1 µM.

Consider `CN(C)CCNC(=O)Cn1ccc(=O)c2cc([N+](=O)[O-])ccc21`, for which the EC50 was greater than 200 µM and the 50% inhibitory concentration (IC50) was greater than 200 µM.

Consider `C#Cc1cccc(N2C(=O)CCC2=O)c1`, for which the EC50 is greater than 468 µM and the IC50 is 17.4 µM.

`Cc1cc(NS(=O)(=O)c2ccc(Nc3c4ccccc4nc4c(C(=O)O)cccc34)cc2)no1`: the EC50 is greater than 200 µM and the concentration for half-maximal inhibition (IC50) worked out at 178 µM.

For `O=C(O)c1cc2c(cn1)[nH]c1ccccc12`, the outcome was inactive.

Regarding `CC(C)(C)OC(=O)Cc1ccc2c(ccn2Cc2ccccc2)c1`, the outcome was inactive.

With `O=S(=O)(Nc1cccc(F)c1)c1ccc(F)cc1`, the result was inactive.

For `Cc1ccccc1[P+](Cc1ccccc1)(c1ccccc1)c1ccccc1C`, the EC50 was greater than 200 µM and the IC50 turned out to be 0.776 µM.

For `COC[C@H]1C(=O)NCC(=O)N2N=CCC[C@H]2C(=O)N(O)[C@H](C)C(=O)O[C@@H](C(C)C)[C@H](NC(=O)[C@@](C)(O)[C@]2(O)CC[C@@H](CC(C)C)[C@H](C)O2)C(=O)N2NCCC[C@@H]2C(=O)N1O`, the EC50 is greater than 0.151 µM and the IC50 was 0.0417 µM.

With `NS(=O)(=O)c1ccc(NC(=O)Nc2cc(C(F)(F)F)ccc2Cl)cc1`, the EC50 is greater than 200 µM and the IC50 is 10.2 µM.

In the case of `Oc1ccc2ccccc2c1Br`, the EC50 was greater than 200 µM and the IC50 came out at 162 µM.

The values are drawn from PubChem BioAssay AID179 (DTP/NCI, 2004).
